Data from US20100266503A1, “Breast Cancer Methods, Medicaments and Agents” (priority 2007, published 2010).
Non-standard residues stand in square brackets, D forms with d. Residues, ends and D or L forms follow the SMILES beside them. *: point of attachment. Nle = CCCC[C@H](N)C(=O)O; Cbz = O=C(OCc1ccccc1)*

Assays:
Format in all cases: cell-based
[1] = test system: L226U19 and L226TS4 cells; assay: SRB proliferation of GSI1 on normal L226 cell lines; conditions: tested at 10-80 μM; the two L226 cell lines
Procedure: Graphs illustrating the effects of GSI1, at different concentrations, on proliferation in four normal cell lines: (A) MCF-10A cells, (B) MCF-10A, (C) L226U19 cells and (D) L226TS4 cells.
The effect of GSI1 on proliferation in normal cell lines was investigated as, illustrated in FIG. 8. […] Therefore we repeated in all 3 normal lines (MCF-10A, L226U19 and L226TS4) at much higher concentrations (10 μM, 20 μM, 40 μM, 60 μM and 80 μM). 10 μM GSI1 was required to kill the MCF-10A cells and over 40 μM GSI1 was required to kill the two L226 cell lines. MCF-10A cells were cultured in DMEM (Invitrogen 11995-040), […] Insulin (Sigma, 11882), 20 ng/ml hEGF (Trevigen, 3443-050-01), 100 ng/ml Cholera Toxin (Sigma, C8052), 500 ng/ml Hydrocortisone (Sigma, H0888), 5% Horse Serum +100U/m1 penicillin, 0.1 mg/ml streptomycin, 2 mM L-glutamine at 37° C. in 5% CO2. L226U19 and TS4 cells were cultured in DME: F12 plus 10% FCS, 5 μg/ml insulin, 1 μg/ml Hydrocortisone, 10 ng/ml hEGF, 10 ng/ml Cholera toxin 100 U/ml penicillin, 0.1 mg/ml streptomycin, 2 mM L-glutamine at 37° C. in 5% CO2.

[2] = test system: Hes1 transcriptional activity (Notch target gene); assay: CSL (Hes-1) Luciferase reporter assay upon GSI1 treatment; conditions: 750 nM, 2 microM, 5 microM; 24 h
Procedure: For the Luciferase based reporter assay, 5×10^4 cells were plated in 48 well plates and allowed to adhere over night. The following day, cells were transfected with 200 ng of the 23A plasmid (Hes-1 reporter). 24 h after transfection, transfection media was evacuated and replaced with treatment media (750 nM, 2 microM, 5 microM of the GSI1 and a vehicle treated control). Cells were incubated for 24 h at 37 C. At the 24 h time point the Dual Glow (Promega) Luciferase Kit was implemented according to manufacturer's protocol).

[3] = test system: MDA-MB-231, T47D and MCF-7 cells; assay: Annexin V staining / full cell cycle analysis by FACS after GSI1
Procedure: We next did Annexin V staining which is a marker of apoptosis. Cells were treated with GSI1 for 0, 7, 24 and 48 hours. After trypsinizing, the cells were washed with PBS 5 times and then treated with RNAase (100 μg/ml) for 20 mins then propidium iodide was added at 50 μg/ml per 1×10^7 cells, and incubated overnight at 4° C. The samples were then filtered through a 70 μm mesh and run on a FACS with the following settings: Forward scatter 113, side scatter 356 and PE setting 380. Although there was an increase in staining indicating apoptosis, this was only approximately 10%. For example, in MDA-MB-231 cells there was a 5% increase in Annexin V staining after 7 hours of treatment and in T47D and MCF-7 cells there was an 8% increase in Annexin V staining. We have repeated these experiments with full cell cycle analysis at 7, 24 and 48 h post treatment and again detect apoptosis but […]. […] Nevertheless it is likely that cell proliferation is inhibited via another mechanism as opposed to the induction of cellular death.

[4] = test system: CD44 in ZR75-1 and MCF10A cells; assay: CD44 immunofluorescence staining after GSI1; conditions: GSI1 750 nM
Description: Stained sections of the breast cancer cell line ZR75-1 (A-D) and the normal cell line (E-H) showing effect of GSI1 on CD44 concentration. Upper sections (A, B, E and F) show cells treated with GSI1. Lower sections (C, D, G and H) show untreated cells. Sections were stained with an anti CD44 primary antibody and a fluorescently labeled secondary antibody to detect CD44. Nuclei were counterstained with DAPI, as shown in panels A, C, E and G.
In order to understand the mechanism of how GS inhibition by GSI1 leads to cell death, we investigated the effect of GS inhibition on CD44 expression which is a substrate for GS and is a cell adhesion molecule. […] The effect of GSI1 on CD44 expression was investigated in one cancer, ZR75-1, and one normal, MCF10A, cell line±GSI1 (at 750 nM i.e. inhibitory dose) (FIG. 9). We used an anti CD44 primary antibody and a fluorescently labelled secondary antibody to detect the CD44. Specifically, the CD44 antibody was a FITC conjugated antibody (BD Biosciences) that was used at a 1:40 dilution. The antibody was incubated for 60 mins at room temperature after fixing in formalin. Nuclei were counterstained with DAPI. […] Thus the inhibitor was not causing the cells to become detached from the plates and die.

[5] = test system: Gamma Secretase Activity in breast cancer cell lines; assay: Gamma-Secretase Activity Assay (R&D Systems kit) upon GSI1 treatment; conditions: 750 nM, 2 uM, 5 uM; 24 and 48 hours
Procedure: 1.5×10^6 cells were plated out and allowed to adhere overnight. The next day, cells were treated with increasing concentrations of GSI1 (750 nM, 2 uM, 5 uM) for 24 and 48 hours. We used the R&D Systems Gamma Secretase Activity Kit (as previously reported- ref from R&D Spec sheet) to determine Gamma Secretase Activity in breast cancer cell lines. Cells were washed twice with ice-cold PBS and all following steps, according to manufacturer's protocol were performed at 4 degrees. Briefly, cells were harvested in the Cell Extraction buffer, and incubated on ice for at least 10 minutes, to allow for maximal Buffer activity. Lysates were centrifuged at 10,000×g for 1 minute. Supernatants were collected with a total protein yield between 0.5-1 mg/ml. Pierce BCA Protein Assay was used to determine protein concentration in each sample. 200 microg of was used and incubated with the gamma-secretase fluorogenic substrate for 2 hours at 37° C. Fluorescence was measured at 355/460 nm.

Structure (SMILES): CCCC[C@@H](C=O)NC(=O)[C@H](CC(C)C)NC(=O)[C@H](CC(C)C)NC(=O)OCc1ccccc1 [GSI1, Z-Leu-Leu-Nle-CHO] (Cbz-Leu-Leu-[Nle]-aldehyde)
- concentration required to kill the cells [1]: over 40 μM
- Hes1 reporter (Luciferase) activity [2]: dose dependant decrease of the reporter activity
- apoptosis level in full cell cycle analysis ([3]; 7, 24 and 48 h post treatment, higher concentration of GSI): > 25%
- cell cycle status ([3]; higher concentration of GSI): majority of cells were in G2/M Cell cycle arrest
- increase in Annexin V staining indicating apoptosis ([3]; treated 0, 7, 24 and 48 hours): approximately 10%
- CD44 expression [4]: up-regulation of CD44
- reduction in gamma-secretase activity [5]: dose dependant and already significant at the dose of 750 nM
